From US20230012368A1 (Hoffmann-La Roche Inc., priority 2018, published 2023)
Counter-ions that a name gives are not always drawn. Like-named read-outs stand apart in the source and are kept apart here.

System: Acinetobacter baumannii ATCC 17978
Assay: Antimicrobial susceptibility testing: 90% growth inhibitory concentration (IC90) determination
Type: cell-based
Conditions: 90% growth inhibitory concentration, Acinetobacter baumannii ATCC17978, Iso-Sensitest broth, OD 600 nm over 16h, read-out: ATCC17978 IC90
Procedure: Antimicrobial Susceptibility Testing:
90% Growth Inhibitory Concentration (IC90) Determination
The in vitro antimicrobial activity of the compounds was determined according to the following procedure:
The assay used a 10-points Iso-Sensitest broth medium to measure quantitatively the in vitro activity of the compounds against Acinetobacter baumannii ATCC 17978 and Acinetobacter baumannii ATCC 17961.
Stock compounds in DMSO were serially twofold diluted (e.g. range from 50 to 0.097 μM final concentration) in 384 wells microtiter plates and inoculated with 49 μl the bacterial suspension in Iso-Sensitest medium to have a final cell concentration of ˜5×10^(5) CFU/ml in a final volume/well of 50 ul/well. Microtiter plates were incubated at 35±2° C.
Bacterial cell growth was determined with the measurement of optical density at λ=600 nm each 20 minutes over a time course of 16h. Growth inhibition was calculated during the logarithmic growth of the bacterial cells with determination of the concentration inhibiting 50% (IC50) and 90% (IC90) of the growth.
Table 1 provides the 90% growth inhibitory concentrations (IC90) in micromoles per liter of the compounds of present invention obtained against the strain Acinetobacter baumannii ATCC17978 and Acinetobacter baumannii ATCC17961.

[1] = Acinetobacter baumannii, ATCC17978, 16 h

Row | IC90 [1] [nM] | Compound | IC90 [nM]
1 | 460 | CCc1cc(Nc2nccn3c(-c4ccc(Oc5ccncn5)c(F)c4F)cnc23)ccc1C(=O)NCCNC(=O)[C@H](N)CCCNC(=N)N [Example 433, N-[2-[[(2R)-2-amino-5-guanidino-pentanoyl]amino]ethyl]-4-[[3-(2,3-difluoro-4-pyrimidin-4-yloxy-phenyl)imidazo[1,2-a]pyrazin-8-yl]amino]-2-ethyl-benzamide; formic acid] | –
2 | 890 | COc1ccc(-c2cnc3c(Nc4ccc(C(=O)NCC5CCSCC5)c(Cl)c4)nccn23)c(F)c1F [Example 42, 2-chloro-4-[[3-(2,3-difluoro-4-methoxy-phenyl)imidazo[1,2-a]pyrazin-8-yl]amino]-N-(tetrahydrothiopyran-4-ylmethyl)benzamide] | –
3 | 450 | CCc1cc(Nc2nccn3c(-c4ccc(OC)c(F)c4F)cnc23)ccc1C(=O)N[C@@H](C)CNC(=N)C(C)C [Example 503, 4-[[3-(2,3-difluoro-4-methoxyphenyl)imidazo[1,2-a]pyrazin-8-yl]amino]-2-ethyl-#N!-[(2#S!)-1-(2-methylpropanimidoylamino)propan-2-yl]benzamide] | –
4 | 220 | COc1ccc(-c2cnc3c(Nc4ccc(C(=O)NCCCCCN)c(C)c4)nccn23)cc1 [Example 184, N-(5-aminopentyl)-4-[[3-(4-methoxyphenyl)imidazo[1,2-a]pyrazin-8-yl]amino]-2-methylbenzamide; hydrochlo-ride] | –
5 | 870 | CCc1cc(Nc2nccn3c(-c4ccc(Oc5ccccn5)c(F)c4F)cnc23)ccc1C(=O)NCCNC(=O)[C@H](N)CCCNC(=N)N [Example 422, N-[2-[[(2R)-2-amino-5-guanidino-pentanoyl]amino]ethyl]-4-[[3-[2,3-difluoro-4-(2-pyridyloxy)phenyl]imidazo [1,2-a]pyrazin-8-yl]amino]-2-ethyl-benzamide; formic acid] | –
6 | 1100 | CNC(=O)c1ccc(Nc2nccn3c(-c4ccc(OC(F)F)cc4)cnc23)cc1C1CC1 [Example 167, 2-cyclopropyl-4-[[3-[4-(difluoromethoxy)phenyl]imidazo[1,2-a]pyrazin-8-yl]amino]-N-methyl-benzamide] | –
7 | – | COc1ccc(-c2cnc3c(Nc4ccc(C(=O)NCCCCCCCN)c(C)c4)nccn23)c(F)c1F [Example 516, N-(7-aminoheptyl)-4-((3-(2,3-difluoro-4-methoxyphenyl)imidazo[1,2-a]pyrazin-8-yl)amino)-2-methylbenzamide hydrochloride] | 34
8 | 540 | Cc1cc(Nc2nccn3c(-c4ccc(Cl)cc4)cnc23)ccc1C(=O)NCCCCN [Example 239, N-(4-aminobutyl)-4-[[3-(4-chlorophenyl)imidazo[1,2-a]pyrazin-8-yl]amino]-2-methylbenzamide; hydrochlo-ride] | –
9 | 80 | CCc1cc(Nc2nccn3c(-c4ccc(OC)c(F)c4F)cnc23)ccc1C(=O)NCCCCC(=O)N1CCN[C@H](CO)C1 [Example 163, 4-[[3-(2,3-difluoro-4-methoxy-phenyl)imidazo[1,2-a]pyrazin-8-yl]amino]-2-ethyl-N-[5-[(3S)-3-(hydroxymethyl)piperazin-1-yl]-5-oxo-pentyl]benzamide] | –
10 | 80 | COc1ccc(-c2cnc3c(Nc4ccc(C(=O)NCCCNC(=O)[C@@H]5C[C@](C)(O)CN5)c(C)c4)nccn23)c(F)c1F [Example 361, (2S,4S)-N-[3-[[4-[[3-(2,3-difluoro-4-methoxyphenyl)imidazo[1,2-a]pyrazin-8-yl]amino]-2-methylbenzoyl]amino]propyl]-4-hydroxy-4-methylpyrrolidine-2-carboxamide] | –
11 | 690 | COc1ccc(-c2cnc3c(Nc4ccc(C(=O)N(C)CCO)c(C)c4)nccn23)cc1 [Example 19, N-(2-hydroxyethyl)-4-((3-(4-methoxyphenyl)imidazo [1,2-a]pyrazin-8-yl)amino)-N,2-dimethylbenzamide] | –
12 | 330 | COc1ccc(-c2cnc3c(Nc4ccc(C(=O)NCCC5CCNCC5)c(C)c4)nccn23)cc1 [Example 191, 4-[[3-(4-methoxyphenyl)imidazo[1,2-a]pyrazin-8-yl]amino]-2-methyl-N-(2-piperidin-4-ylethyl)benzamide;hydrochlo-ride] | –
13 | 4600 | COc1ccc(-c2cnc3c(Nc4ccc(C(=O)NCCCN5CCNC(C(=O)O)C5)c(C)c4)nccn23)cc1F (centres unmarked) [Example 2, 4-(3-(4-((3-(3-fluoro-4-methoxyphenyl)imidazo [1,2-a]pyrazin-8-yl)amino)-2-methylbenzamido)propyl) piperazine-2-carboxylic acid] | –
14 | 77 | CCc1cc(Nc2nccn3c(-c4ccc(OC)c(F)c4F)cnc23)ccc1C(=O)NCC1CCN(CC(=O)NCC2CCNC2)CC1 (centres unmarked) [Example 551, 4-((3-(2,3-difluoro-4-methoxyphenyl)imidazo[1,2-a]pyrazin-8-yl)amino)-2-ethyl-N-((1-(2-oxo-2-((pyrrolidin-3-ylmethyl)amino)ethyl)piperi-din-4-yl)methyl)benzamide bis(2,2,2-trifluoroacetate)] | –
15 | 120 | COc1ccc(-c2cnc3c(Nc4ccc(C(=O)NCCCCCN5CCNCC5)c(C)c4)nccn23)cc1F [Example 272, 4-[[3-(3-fluoro-4-methoxyphenyl)imidazo[1,2-a]pyrazin-8-yl]amino]-2-methyl-N-(5-piperazin-1-ylpentyl)benzamide;hydrochlo-ride] | –
16 | 670 | CCc1cc(Nc2nccn3c(-c4ccc(OCC#CCO)c(F)c4F)cnc23)ccc1C(=O)NCCCN [Example 419, N-(3-aminopropyl)-4-[[3-[2,3-difluoro-4-(4-hydroxybut-2-ynoxy)phenyl]imidazo[1,2-a]pyrazin-8-yl]amino]-2-ethyl-benzamide] | –
17 | 900 | Cc1cc(Nc2nccn3c(-c4ccc(OC(F)F)cc4)cnc23)ccc1C(=O)N(C)CCCSc1nnnn1CCN(C)C [Example 177, 4-[[3-[4-(difluoromethoxy)phenyl]im-idazo[1,2-a]pyrazin-8-yl]amino]-N-[3-[1-[2-(dimethylamino)ethyl]tetrazol-5-yl]sulfanylpropyl]-N,2-dimethylbenzamide;2,2,2-trifluoroacetic acid] | –
18 | 120 | CCc1cc(Nc2nccn3c(-c4ccc(OC)c(F)c4F)cnc23)ccc1C(=O)NCCNC(=O)CN [Example 368, N-[2-[(2-aminoacetyl)amino]ethyl]-4-[[3-(2,3-difluoro-4-methoxyphenyl)imidazo[1,2-a]pyrazin-8-yl]amino]-2-ethylbenzamide] | –
19 | 8600 | COc1ccc(-c2cnc3c(Nc4ccc(C(=O)N(C)CC(=O)N5CCNC(C(=O)O)C5)c(C)c4)nccn23)cc1F (centres unmarked) [Example 173, 4-[2-[[4-[[3-(3-fluoro-4-methoxyphenyl)imidazo[1,2-a]pyrazin-8-yl]amino]-2-methylbenzoyl]-methylamino]acetyl]piperazine-2-carboxylic acid;hydrochloride] | –
20 | 1300 | CNC(=O)c1ccc(Nc2nccn3c(-c4ccc(OC)c(Cl)c4)cnc23)cc1 [Example 181, 4-[[3-(3-chloro-4-methoxyphenyl)imidazo[1,2-a]pyrazin-8-yl]amino]-N-methylbenzamide;2,2,2-trifluoroacetic acid] | –
21 | 780 | CCc1cc(Nc2nccn3c(-c4ccc(OC)c(F)c4F)cnc23)ccc1C(=O)NCC(C)(C)CN [Example 98, N-(3-amino-2,2-dimethylpropyl)-4-((3-(2,3-difluoro-4-methoxyphenyl)imidazo [1,2-a]pyrazin-8-yl)amino)-2-ethylbenzamide hydrochloride] | –
22 | 410 | CCc1cc(Nc2nccn3c(-c4ccc(Oc5ccccn5)c(F)c4F)cnc23)ccc1C(=O)NCCC(=O)N1CCN[C@H](CO)C1 [Example 475, 4-[[3-[2,3-difluoro-4-(2-pyridyloxy)phenyl]imidazo [1,2-a]pyrazin-8-yl]amino]-2-ethyl-N-[3-[(3S)-3-(hydroxymethyl)piperazin-1-yl]-3-oxo-propyl]benzamide] | –
23 | 760 | Cc1cc(Nc2nccn3c(-c4ccc(OC(F)F)cc4)cnc23)ccc1C(=O)N(C)CCC1CCN(CCCC(=O)O)CC1 [Example 443, 4-(4-(2-(4-((3-(4-(difluoromethoxy)phenyl)im-idazo[1,2-a]pyrazin-8-yl)amino)-N,2-dimethylbenzamido)ethyl)piperidin-1-yl)butanoic acid hydrochloride] | –
24 | 640 | COc1ccc(-c2cnc3c(Nc4ccc(C(=O)NCC5CCNCC5)c(C)c4)nccn23)cc1 [Example 211, 4-[[3-(4-methoxyphenyl)imidazo[1,2-a]pyrazin-8-yl]amino]-2-methyl-N-(piperidin-4-ylmethyl)benzamide;hydrochlo-ride] | –
25 | 1100 | CCc1cc(Nc2nccn3c(-c4ccc(OC(F)F)cc4)cnc23)ccc1C(=O)N(C)CCN1CCNCC1 [Example 224, 4-[[3-[4-(difluoromethoxy)phenyl]im-idazo[1,2-a]pyrazin-8-yl]amino]-2-ethyl-N-methyl-N-(2-piperazin-1-ylethyl)benzamide;hydrochlo-ride] | –
26 | – | CCc1cc(Nc2nccn3c(-c4ccc(Oc5ncccn5)c(F)c4F)cnc23)ccc1C(=O)NCCNC(=O)[C@H](N)CCCNC(=N)N [Example 437, N-[2-[[(2R)-2-amino-5-guanidino-pentanoyl]amino]ethyl]-4-[[3-(2,3-difluoro-4-pyrimidin-2-yloxy-phenyl)imidazo[1,2-a]pyrazin-8-yl]amino]-2-ethyl-benzamide; formic acid] | 410
